The target of this assay is human APJ receptor (Homo sapiens (Human), UniProt P35414). As to the kind of experiment: biochemical. In kind it is biochemical. Particulars: [35S]GTPγS binding, CHO membranes expressing human APJ receptor; read-out: Activity hAPJ SPA EC50 IP. The method, boiled down:
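GTPγS binding on membranes from CHO cells stably expressing FLAG-tagged human APJ, with optimized GDP, MgCl2 and NaCl; incubated 90 min at RT before imaging read-out.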

Chain of human APJ receptor (P35414 whole entry): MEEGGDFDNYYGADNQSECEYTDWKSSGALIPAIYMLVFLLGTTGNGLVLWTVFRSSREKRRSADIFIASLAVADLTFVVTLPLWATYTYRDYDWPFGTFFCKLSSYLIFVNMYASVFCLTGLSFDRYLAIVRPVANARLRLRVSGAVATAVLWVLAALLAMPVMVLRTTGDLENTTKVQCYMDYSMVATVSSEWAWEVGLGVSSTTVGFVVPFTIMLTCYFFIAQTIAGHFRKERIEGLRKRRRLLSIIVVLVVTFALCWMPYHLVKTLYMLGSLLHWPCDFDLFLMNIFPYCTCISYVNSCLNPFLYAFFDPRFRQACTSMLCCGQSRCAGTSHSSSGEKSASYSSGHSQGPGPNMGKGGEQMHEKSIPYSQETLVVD

For `CCn1ccc(-c2nnc(NS(=O)(=O)[C@@H](C)[C@H](OC)c3ncc(Cl)cn3)n2-c2c(OC)cccc2OC)n1` [Example 393.0, (1R,2S)-1-(5-chloropyrimidin-2-yl)-N-(4-(2,6-dimethoxyphenyl)-5-(1-ethyl-1H-pyrazol-3-yl)-4H-1,2,4-triazol-3-yl)-1-methoxypropane-2-sulfonamide], the EC50 is 0.47 nM.

On to `COCC1(n2c(NS(=O)(=O)[C@@H](C)[C@H](OC)c3ncc(Cl)cn3)nnc2-c2noc3ccccc23)CC1` [Example 505.0, (1R,2S)-N-(5-(1,2-benzoxazol-3-yl)-4-(1-(methoxymethyl)cyclopropyl)-4H-1,2,4-triazol-3-yl)-1-(5-chloro-2-pyrimidinyl)-1-methoxy-2-propanesulfonamide], for which the EC50 amounted to 8.5 nM.

On to `COc1cccc(OC)c1-n1c(NS(=O)(=O)[C@@H](C)[C@H](C)c2ncc(Cl)cn2)nnc1-c1ccn(C(F)F)n1` [Example 222.0, (2S,3R)-3-(5-chloro-2-pyrimidinyl)-N-(5-(1-(difluoromethyl)-1H-pyrazol-3-yl)-4-(2,6-dimethoxyphenyl)-4H-1,2,4-triazol-3-yl)-2-butanesulfonamide], for which the EC50 is 0.11 nM.

Turning to `COc1ccc(C(=O)O)cc1-n1c(NS(=O)(=O)CCc2ccc(Cl)cc2)nnc1-c1cccs1` [Example 245.0, 3-(3-(2-(4-chlorophenyl)ethylsulfonamido)-5-(thiophen-2-yl)-4H-1,2,4-triazol-4-yl)-4-methoxybenzoic acid], the EC50 is 210 nM.

For `COc1cccc(OC)c1-n1c(NS(=O)(=O)[C@@H](C)[C@H](OC)c2ncc(Cl)cn2)nnc1-c1n[nH]c2ccc(Cl)cc12` [Example 422.0, (1R,2S)-N-(5-(5-chloro-1H-indazol-3-yl)-4-(2,6-dimethoxyphenyl)-4H-1,2,4-triazol-3-yl)-1-(5-chloropyrimidin-2-yl)-1-methoxypropane-2-sulfonamide], the EC50 amounted to 6.2 nM.

Turning to `COc1ncnc(OC)c1-n1c(NS(=O)(=O)[C@@H](C)[C@H](OC)c2ncc(C)cn2)nnc1-c1csc(C)n1` [Example 5.0, (1R,2S)-N-(4-(4,6-dimethoxypyrimidin-5-yl)-5-(2-methylthiazol-4-yl)-4H-1,2,4-triazol-3-yl)-1-methoxy-1-(5-methylpyrimidin-2-yl)propane-2-sulfonamide], the concentration giving a half-maximal response (EC50) amounted to 4.1 nM.

Consider `COc1cccc(OC)c1-n1c(NS(=O)(=O)[C@@H](C)[C@H](OC)c2ncc(C)cn2)nnc1-c1cnccn1` [Example 337.0, (1R,2S)-N-(4-(2,6-dimethoxyphenyl)-5-(2-pyrazinyl)-4H-1,2,4-triazol-3-yl)-1-methoxy-1-(5-methyl-2-pyrimidinyl)-2-propanesulfonamide], for which the concentration giving a half-maximal response (EC50) came out at 6.8 nM.

Take `COc1cccc(OC)c1-n1c(NS(=O)(=O)[C@@H](C)[C@H](C)c2ncc(C)cn2)nnc1-c1cc(C)[nH]n1` [Example 346.0, (2S,3R)-N-(4-(2,6-dimethoxyphenyl)-5-(5-methyl-1H-pyrazol-3-yl)-4H-1,2,4-triazol-3-yl)-3-(5-methyl-2-pyrimidinyl)-2-butanesulfonamide]: the EC50 amounted to 1.5 nM.

With “(R)-N-(4-(2,6-dimethoxyphenyl)-5-(pyrimidin-2-yl)-4H-1,2,4-triazol-3-yl)-1-(5-fluoropyrimidin-2-yl)propane-2-sulfonamide and (S)-N-(4-(2,6-dimethoxyphenyl)-5-(pyrimidin-2-yl)-4H-1,2,4-triazol-3-yl)-1-(5-fluoropyrimidin-2-yl)propane-2-sulfonamide [Example 56.0]”, the EC50 came to 74 nM.

For `COc1cccc(OC)c1-n1c(NS(=O)(=O)[C@@H](C)[C@H](OC)c2ncc(Cl)cn2)nnc1-c1cc(C)[nH]n1` [Example 344.0, (1R,2S)-1-(5-chloro-2-pyrimidinyl)-N-(4-(2,6-dimethoxyphenyl)-5-(5-methyl-1H-pyrazol-3-yl)-4H-1,2,4-triazol-3-yl)-1-methoxy-2-propanesulfonamide], the EC50 stood at 0.63 nM.
